Type in all cases: in vivo
In assay [1] the test system is rice (ORYSS; Oryza sativa, cv. M202). Nature of the assay: Test of Tables L1 to L3, postemergence, mixtures of Cpd. No. 20 with benoxacor, isoxadifen-ethyl, or cloquintocet-mexyl. Particulars: 31 g a.i./ha. From the text: (§1) This test evaluated the effect of mixtures of Cpd. No. 20 with benoxacor, isoxadifen-ethyl, or cloquintocet-mexyl on several plant species. Seeds of plant species selected from corn (ZEAMD; Zea mays, cv. ‘Pioneer 1184’), soybean (GLXMA; Glycine max, cv. Pioneer 35T58), winter wheat (TRZAW; Triticum aetivum, cv. Arezzo), rice (ORYSS; Oryza sativa, cv. M202), and giant foxtail (SETFA; Setaria faberi) were planted in pots containing Redi-Earth® planting medium (Scotts Company, 14111 Scottslawn Road, Marysville, Ohio 43041) comprising spaghnum peat moss, vermiculite, wetting agent and starter nutrients and treated postemergence using test chemicals formulated in a non-phytotoxic solvent mixture which included a surfactant. Plants ranged in height from 7 to 10 cm and were in the one- to two-leaf stage for the postemergence treatment. Treated plants and untreated controls were maintained in a greenhouse for approximately 14 d, after which time all treated plants were compared to untreated controls and visually evaluated for injury. Plant response ratings, summarized in Tables L1 to L3, are based on a 0 to 100 scale where 0 is no effect and 100 is complete control. A dash (-) response means no test result. Test results are presented as a mean of 4 reps.

Assay [2] has as its system giant foxtail (SETFA; Setaria faberi). Described as above. Particulars: 31 g a.i./ha.
Source text: as §1

For assay [3], the system named is corn (ZEAMD; Zea mays, cv. ‘Pioneer 1184’). The assay is described as above. Particulars: 31 g a.i./ha.
Source text: as §1

In assay [4] the test system is soybean (GLXMA; Glycine max, cv. Pioneer 35T58). The assay is described as above. Particulars: 31 g a.i./ha.
Source text: as §1

Assay [5] concerns winter wheat (TRZAW; Triticum aetivum, cv. Arezzo). The description is as above. The note with it: 31 g a.i./ha.
Source text: as §1

The test system of assay [6] is giant foxtail (SETFA; Setaria faberi). Nature of the assay: Test K pre-/postemergence, mixtures of Cpd. No. 20 with metribuzin or rimsulfuron. From the text: (§2) This test evaluated the effect of mixtures of Cpd. No. 20 with metribuzin or rimsulfuron on several plant species. Seeds of plant species selected from corn (ZEAMD; Zea mays, cv. ‘Pioneer 1184’), soybean (GLXMA; Glycine max, cv. Pioneer 35T58), giant foxtail (SETFA; Setaria faberi), palmer amaranth (AMAPA; Amaranthus palmeri), common waterhemp (AMATU; Amaranthus rudis), mare's tail (ERICA; Conyza canadensis), and common ragweed (AMBEL; Ambrosia artemisiifolia) were planted in pots containing Tama Silt Loam soil and treated preemergence with a directed soil spray using test chemicals formulated in a non-phytotoxic solvent mixture which included a surfactant.
(§3) At the same time, plants selected from these crop and weed species were planted in pots containing Redi-Earth® planting medium (Scotts Company, 14111 Scottslawn Road, Marysville, Ohio 43041) comprising spaghnum peat moss, vermiculite, wetting agent and starter nutrients and treated postemergence with test chemicals formulated in the same manner. Plants ranged in height from 2 to 10 cm and were in the one- to two-leaf stage for the postemergence treatment. Treated plants and untreated controls were maintained in a greenhouse for approximately 14-21 d, after which time all treated plants were compared to untreated controls and visually evaluated for injury. Plant response ratings, summarized in Tables K1 to K4, are based on a 0 to 100 scale where 0 is no effect and 100 is complete control. A dash (-) response means no test result. Test results are presented as a mean of 4 reps.

The subject of assay [7] is mare's tail (ERICA; Conyza canadensis). The assay is described as above.
Source text: as §2, §3

For assay [8], the system named is corn (ZEAMD; Zea mays, cv. ‘Pioneer 1184’). The description is as above.
Source text: as §2, §3

Assay [9] concerns palmer amaranth (AMAPA; Amaranthus palmeri). Described as above.
Source text: as §2, §3

Assay [10] has as its system common ragweed (AMBEL; Ambrosia artemisiifolia). The assay is described as above.
Source text: as §2, §3

Assay [11] deals with soybean (GLXMA; Glycine max, cv. Pioneer 35T58). Described as above.
Source text: as §2, §3

Assay [12] has as its system common waterhemp (AMATU; Amaranthus rudis). Described as above.
Source text: as §2, §3

Take `CC1COc2ccccc2N1C(=O)C(Cl)Cl` (stereo not shown) [Benoxacor, benoxacor, reference compound]: in assay [1], the “ORYSS plant response rating, 0 to 100 scale” value is 0. In assay [2], the “SETFA plant response rating, 0 to 100 scale” value (shortened to “SETFA plant response rating”) was 0. In addition, the “ZEAMD plant response rating, 0 to 100 scale” value (“ZEAMD plant response rating” for short) in assay [3] is recorded as 0. For the same molecule, the “GLXMA plant response rating, 0 to 100 scale” value (“GLXMA plant response rating” below) in assay [4] is 0. The “TRZAW plant response rating, 0 to 100 scale” value in assay [5] is listed as 0.
With `CCS(=O)(=O)c1cccnc1S(=O)(=O)NC(=O)Nc1nc(OC)cc(OC)n1` [Rimsulfuron, rimsulfuron, reference compound], the “SETFA plant response rating” value in assay [6] (postemergence, 8 g a.i./ha) stood at 80; in assay [6] (postemergence, 16 g a.i./ha) it was 97; in assay [6] (preemergence, 8 g a.i./ha), 50; in [6] (preemergence, 16 g a.i./ha), 73. The “ERICA plant response rating, 0 to 100 scale” value came to 50 in assay [7] (postemergence, 8 g a.i./ha); 70 in assay [7] (postemergence, 16 g a.i./ha); 95 in [7] (preemergence, 8 g a.i./ha); 98 in assay [7] (preemergence, 16 g a.i./ha). The “ZEAMD plant response rating” value in [8] (postemergence, 8 g a.i./ha) is listed as 0; in [8] (postemergence, 16 g a.i./ha), 10; in [8] (preemergence, 8 g a.i./ha), 0; in [8] (preemergence, 16 g a.i./ha) it was 0. Also, the “AMAPA plant response rating, 0 to 100 scale” value in assay [9] (postemergence, 8 g a.i./ha) worked out at 60; in assay [9] (postemergence, 16 g a.i./ha), 60; in assay [9] (preemergence, 8 g a.i./ha) it was 33; in assay [9] (preemergence, 16 g a.i./ha), 40. Further, the “AMBEL plant response rating, 0 to 100 scale” value in assay [10] (postemergence, 8 g a.i./ha) was found to be 40; in assay [10] (postemergence, 16 g a.i./ha) it was 60; in [10] (preemergence, 8 g a.i./ha), 0; in assay [10] (preemergence, 16 g a.i./ha), 43. Further, the “GLXMA plant response rating” value in assay [11] (postemergence, 8 g a.i./ha) is given as 75; in assay [11] (postemergence, 16 g a.i./ha), 93; in assay [11] (preemergence, 8 g a.i./ha) it was 0; in assay [11] (preemergence, 16 g a.i./ha), 0. The “AMATU plant response rating, 0 to 100 scale” value in [12] (postemergence, 8 g a.i./ha) is given as 75; in [12] (postemergence, 16 g a.i./ha) it was 77; in assay [12] (preemergence, 8 g a.i./ha), 51; in assay [12] (preemergence, 16 g a.i./ha) it was 73.
Regarding `CSc1nnc(C(C)(C)C)c(=O)n1N` [Metribuzin, metribuzin, reference compound], the “SETFA plant response rating” value in assay [6] (postemergence, 62 g a.i./ha) is recorded as 0; in assay [6] (postemergence, 125 g a.i./ha), 10; in assay [6] (preemergence, 62 g a.i./ha), 30; in [6] (preemergence, 125 g a.i./ha), 80. Besides, the “ERICA plant response rating, 0 to 100 scale” value was 10 in assay [7] (postemergence, 62 g a.i./ha); 13 in assay [7] (postemergence, 125 g a.i./ha); 100 in assay [7] (preemergence, 62 g a.i./ha); 100 in assay [7] (preemergence, 125 g a.i./ha). For the same molecule, the “ZEAMD plant response rating” value in assay [8] (postemergence, 62 g a.i./ha) was 0; in assay [8] (postemergence, 125 g a.i./ha), 10; in assay [8] (preemergence, 62 g a.i./ha) it was 0; in [8] (preemergence, 125 g a.i./ha), 0. The “AMAPA plant response rating, 0 to 100 scale” value in assay [9] (postemergence, 62 g a.i./ha) is listed as 35; in assay [9] (postemergence, 125 g a.i./ha) it was 47; in [9] (preemergence, 62 g a.i./ha), 78; in assay [9] (preemergence, 125 g a.i./ha) it was 70. Besides, the “AMBEL plant response rating, 0 to 100 scale” value in assay [10] (postemergence, 62 g a.i./ha) worked out at 55; in [10] (postemergence, 125 g a.i./ha), 62; in assay [10] (preemergence, 62 g a.i./ha), 40; in assay [10] (preemergence, 125 g a.i./ha) it was 100. The “GLXMA plant response rating” value in assay [11] (postemergence, 62 g a.i./ha) stood at 33; in assay [11] (postemergence, 125 g a.i./ha), 53; in assay [11] (preemergence, 62 g a.i./ha), 0; in assay [11] (preemergence, 125 g a.i./ha), 0. Further, the “AMATU plant response rating, 0 to 100 scale” value was determined as 37 in assay [12] (postemergence, 62 g a.i./ha); 82 in assay [12] (postemergence, 125 g a.i./ha); 53 in assay [12] (preemergence, 62 g a.i./ha); 86 in [12] (preemergence, 125 g a.i./ha).
